This note sets out measurements from the OPERA property sets (Mansouri et al. 2018).

Converted amounts (≈) assume the structure as drawn.

Conditions in one data set: not given
`CCC(Br)(Br)C(=O)O` registered a solubility of 134 mM (≈ 33000 µg/mL).

On to `CCSS(=O)CC` (configuration not stated), for which the solubility came out at 796 mM (≈ 110000 µg/mL). This solubility is about 5.9-fold higher than that of the compound before.

As for `CCC(NC(=N)N)C(=O)O` (configuration not stated), the solubility was found to be 138 mM (≈ 20000 µg/mL).

Compound `CCSS(=O)(=O)CC` showed a solubility of 77.8 mM (≈ 12000 µg/mL).

Compound `Cc1cc(C)c(C)c(C)n1` showed a solubility of 49.3 mM (≈ 6670 µg/mL).

`CCCC(Br)(CCC)C(N)=O` had a solubility of 14.9 mM (≈ 3300 µg/mL).

Compound `C=CCc1ccc(OCC(=O)O)c(OC)c1` displayed a solubility of 5.27 mM (≈ 1170 µg/mL).

Turning to `CNCCC(=O)O`, the solubility worked out at 882 mM (≈ 91000 µg/mL).

`O=c1[nH]c(-c2ccccc2)ncc1Br` had a solubility of 0.332 mM (≈ 83.3 µg/mL).

As to `C[C@H](NC(=O)c1ccccc1)C(=O)O` (racemic), the solubility was found to be 20.7 mM (≈ 4000 µg/mL).

The compound `CC(=O)C(=Cc1ccccc1)CC(=O)O` yielded a solubility of 24.5 mM (≈ 5000 µg/mL).

On to `CC1(C)OC(=O)c2cc3ccccc3cc21`, for which the solubility came to 1.04 mM (≈ 220 µg/mL).

Compound `CCOc1ccc(NC(=O)CO)cc1` came in with a solubility of 7.84 mM (≈ 1530 µg/mL).

Compound `CC(C)CC1OCCO1` displayed a solubility of 427 mM (≈ 55600 µg/mL).

Turning to `Nc1ccc2snnc2c1`, the solubility was determined as 49.6 mM (≈ 7500 µg/mL). This solubility lies about 8.6-fold lower than the previous one.

Compound `N#CC1CCCC1=O` (configuration not stated) gave a solubility of 440 mM (≈ 48000 µg/mL).

`CCOC(=O)N(C)CC`: the solubility amounted to 381 mM (≈ 50000 µg/mL).

As for `NC(CO)C(=O)N[C@@H](CO)C(=O)O` (stereo in doubt), the solubility is 260 mM (≈ 50000 µg/mL).

Consider `N[C@@H](Cc1cc([N+](=O)[O-])c(O)c([N+](=O)[O-])c1)C(=O)O`, for which the solubility came to 30.7 mM (≈ 8330 µg/mL).

The same data set, now with this note: 20 °C.
`CNc1ncc2nccnc2n1` came in with a solubility of 19.4 mM (≈ 3130 µg/mL). This counts as millimolar.

`CC1(C)C2CCC1(C)C(N)(C(=O)O)C2` (configuration not stated) gave a solubility of 25.3 mM (≈ 5000 µg/mL).

The compound `CCCc1ncnc2c(O)cccc12` displayed a solubility of 1.2 mM (≈ 226 µg/mL).

The compound `CC(C)C(CC(=O)O)C(=O)O` (configuration not stated) had a solubility of 391 mM (≈ 62700 µg/mL).

`OCc1cc(Cl)c(Cl)c(Cl)c1` had a solubility of 0.804 mM (≈ 170 µg/mL).

As to `NC(=O)C(Br)(Br)Br`, the solubility was found to be 54.1 mM (≈ 16000 µg/mL).

The compound `O=c1nc[nH]c2nc(-c3ccccc3)c(-c3ccccc3)nc12` came in with a solubility of 0.666 mM (≈ 200 µg/mL).

On to `O=C(O)C(Br)=C(Br)I`, for which the solubility was determined as 95.6 mM (≈ 34000 µg/mL).

As to `CC(=O)N[C@@H](CSc1ccc(Cl)c(Cl)c1)C(=O)O`, the solubility worked out at 1.3 mM (≈ 400 µg/mL).

Compound `NCCCCCCNCCCCCCCCCCC(=O)O` had a solubility of 4.99 mM (≈ 1500 µg/mL).

With `COc1ccccc1C(N)=O`, the solubility is 16.5 mM (≈ 2500 µg/mL).

As for `CCOC(=O)C(C)=CC(=O)[O-]`, the solubility came to 94.2 mM.

`CN(C)c1ncc2nccnc2n1`: the solubility was 2280 mM (≈ 400000 µg/mL).

`Nc1ccc(Cl)cc1[N+](=O)[O-]`: the solubility worked out at 2.9 mM (≈ 500 µg/mL).

`CC(C)(C(=O)O)C(C)(CC(=O)O)C(=O)O` (configuration not stated) came in with a solubility of 774 mM (≈ 169000 µg/mL).

`O=[N+]([O-])c1ccc(CO)cc1` gave a solubility of 13.1 mM (≈ 2000 µg/mL).

Compound `Nc1c(S(=O)(=O)O)cc(S(=O)(=O)O)c2ccc(S(=O)(=O)O)cc12` gave a solubility of 480 mM (≈ 184000 µg/mL).

With `O=C(O)c1occ(Br)c1Br`, the solubility was 8.15 mM (≈ 2200 µg/mL).

Turning to `CCCCC1(CCCC)C(=O)NC(=O)NC1=O`, the solubility turned out to be 1.33 mM (≈ 320 µg/mL).

`S=C=NCCc1ccccc1` came in with a solubility of 0.674 mM (≈ 110 µg/mL).

The compound `Nc1ncnc2c1ncn2[C@@H]1O[C@H](COP(=O)(O)O)[C@@H](O)[C@H]1O` gave a solubility of 28.8 mM (≈ 10000 µg/mL).

The compound `CC(=O)Nc1ccc(S(=O)(=O)Nc2ccccn2)cc1` gave a solubility of 0.192 mM (≈ 56 µg/mL).

In the case of `OCc1ccc(Cl)cc1`, the solubility stood at 17.5 mM (≈ 2500 µg/mL). This solubility lies about 91-fold higher than the previous one.

For the compound `O=C(O)c1c(Cl)c(Cl)c(Cl)c(Cl)c1C(=O)O`, the solubility came to 11.8 mM (≈ 3600 µg/mL).

For `CCC(CC)(CC)NC(N)=O`, the solubility is 15.2 mM (≈ 2400 µg/mL).

For the compound `COc1c(C(=O)O)cc(C(=O)O)cc1C(=O)O`, the solubility worked out at 29.1 mM (≈ 7000 µg/mL). Against the preceding compound, the solubility is about 1.9-fold higher.

In turn, `C=CCCN=C=S` returned a solubility of 4.06 mM (≈ 460 µg/mL).

`CCC1(CC)C(=O)NC(=O)N=C1N` showed a solubility of 40.1 mM (≈ 7350 µg/mL).

`CCOc1nsc(N)n1` gave a solubility of 223 mM (≈ 32400 µg/mL).

For the compound `OCc1ccc(O)cc1`, the solubility stood at 54 mM (≈ 6700 µg/mL).

In turn, `O=C(O)C=C(CC(=O)O)C(=O)O` displayed a solubility of 2450 mM (≈ 427000 µg/mL).

Consider `O=C(O)Cc1ccccc1C(=O)O`, for which the solubility turned out to be 88.8 mM (≈ 16000 µg/mL).

Compound `CC[C@@H]1C(=O)O[C@H]1C` gave a solubility of 216 mM (≈ 24600 µg/mL).

Take `Cc1csc(=S)n1CC(=O)O`: the solubility turned out to be 10.9 mM (≈ 2060 µg/mL).

Compound `O=C(O)C(O)C(O)c1ccccc1` (configuration not stated) had a solubility of 494 mM (≈ 90000 µg/mL).

As for `O=[N+]([O-])Cc1ccc2ccccc2n1`, the solubility came out at 8.82 mM (≈ 1660 µg/mL).

On to `O=C(O)c1oc(Cl)c(Cl)c1Cl`, for which the solubility came out at 6.04 mM (≈ 1300 µg/mL).

`CCOC(=O)c1c(C)oc(C)c(C(=O)OCC)c1=O` returned a solubility of 29.8 mM (≈ 8000 µg/mL).

`O=C(O)CC(O)C(=O)O` (configuration not stated) registered a solubility of 5790 mM (≈ 777000 µg/mL).

Take `O=C(O)c1ccc(Cl)o1`: the solubility was 19.1 mM (≈ 2800 µg/mL).

As for `c1ccc2c3c(ccc2c1)Sc1ccc2ccccc2c1N3`, the solubility is 1.24e-05 mM (≈ 0.0037 µg/mL).

Regarding `CCCCCCC(O)C(O)C(=O)O` (configuration not stated), the solubility turned out to be 28.4 mM (≈ 5400 µg/mL).

`Clc1cnc2ncncc2n1` showed a solubility of 75 mM (≈ 12500 µg/mL). This solubility lies about 2.6-fold higher than the previous one.

`CN1c2ccccc2Sc2ccccc21`: the solubility was 0.00255 mM (≈ 0.544 µg/mL).

`COc1ccc2c(c1)Sc1ccc(Cl)cc1N2` showed a solubility of 0.0105 mM (≈ 2.77 µg/mL).

The data set is the same for the next values; noted with them: 21 °C.
With `O=C(O)c1cc(Br)ccc1Cl`, the solubility amounted to 11.2 mM (≈ 2630 µg/mL).

Consider `NC(=S)NCNC(N)=S`, for which the solubility is 21.3 mM (≈ 3500 µg/mL).

Compound `CNC(CC(=O)O)C(=O)O` (stereo in doubt) showed a solubility of 176 mM (≈ 25900 µg/mL).
